Article PMC3446921, “Enhanced Solubilisation of Six PAHs by Three Synthetic Cyclodextrins for Remediation Applications: Molecular Modelling of the Inclusion Complexes” (PLoS ONE, 2012)
Converted amounts (≈) assume the structure as drawn. “And” between values parts separate entries of the source, which are not always exact repeats. Identical values can stand only once.

Key:
[1] = ref [40], cited from earlier work
[2] = PAHs aqueous solubility in the absence of CD; settings: 25 °C, water, thermodynamic from solid
[3] = Phase solubility studies (Higuchi and Connors) with RAMEB; settings: for solubility at 1 week: 25 °C, aqueous with cosolvent or surfactant or cyclodextrin, thermodynamic from solid; for Apparent stability constant Kc: RAMEB 0 to 0.1 M, 1:1 complex, 25°C
[4] = Phase solubility studies (Higuchi and Connors) with HP-β-CD; settings: for Apparent stability constant Kc: HP-β-CD 0 to 0.1 M, 1:1 complex, 25°C
[5] = Phase solubility studies (Higuchi and Connors) with HP-γ-CD; settings: HP-γ-CD 0 to 0.1 M; 1:1 complex; 25°C
[6] = physchem; settings: 25 °C, aqueous with cosolvent or surfactant or cyclodextrin, thermodynamic from solid
[7] = physchem; settings: 25 °C, water, thermodynamic from solid
[8] = Phase solubility studies: comparison of the six PAHs across the three CDs; settings: for Decreasing order of Se and Kc: per CD; for Decreasing order of PAHs apparent solubility: reached with 0.1 M of the CD
[9] = 1 week

Decreasing order of Se and Kc [8]	Compound	solubility at 1 week [2] [µg/mL]	Apparent stability constant Kc [3]	Apparent stability constant Kc [4]	Apparent stability constant Kc [5]	further results
–	c1ccc2cc3ccccc3cc2c1 [ANT, anthracene]	0.076 (≈ 0.426 µM)	5399 (±52) M^−1	3284 (±204) M^−1	234 M^−1 and 234 (±35) M^−1	Kc with γ-CD ([1]; γ-CD, [42]): 240 to 330 M⁻¹; solubility at 1 week [3]: ≤ 41 µg/mL; Kc value relative to the lowest one (PYR) ([3]; RAMEB complexes): about 10 fold
–	c1cc2ccc3cccc4ccc(c1)c2c34 [PYR, pyrene]	–	–	–	–	Kc with natural γ-CD ([1]; natural γ-CD, [41]): 250 to 300 M⁻¹
–	c1ccc2c(c1)-c1cccc3cccc-2c13 [FLT, fluoranthene]	–	–	–	–	solubility [6]: ≤ 101 µg/mL; solubility [7]: 0.26 µg/mL (≈ 1.29 µM)
–	c1cc2c3c(cccc3c1)CC2 [ACE, acenaphthene]	1.93 (≈ 12.5 µM)	644 (±12) M^−1	661 (±35) M^−1	758 (±41) M^−1	solubility at 1 week ([8]; 25 °C, aqueous with cosolvent or surfactant or cyclodextrin, thermodynamic from solid): 125 to 147 µg/mL (≈ 811 to 953 µM)
–	c1ccc2c(c1)Cc1ccccc1-2 [FLU, fluorene]	–	2906 (±164) M^−1	–	–	PAHs aqueous solubility (S) [9]: 1.90 µg/mL; solubility at 1 week ([3]; aqueous RAMEB solution): ≤ 574 µg/mL
–	c1ccc2c(c1)ccc1ccccc12 [PHE, phenanthrene]	1.2 (≈ 6.73 µM)	4925 (±511) M^−1	3871 (±322) M^−1	447 (±17) M^−1	solubility at 1 week ([3]; aqueous RAMEB solution): ≤ 572 µg/mL; Kc value relative to that for ACE ([4]; HP-β-CD complexes): ~6 fold
PHE>ANT>FLT>FLU>PYR>ACE	2-Hydroxypropyl-β-CD [HP-β-CD]	–	–	–	–	Decreasing order of PAHs apparent solubility [8]: PHE≥FLU>ACE>FLT>ANT>PYR
ANT>PHE>FLT>FLU>ACE>PYR	randomly methylated-β-CD [RAMEB]	–	–	–	–	Decreasing order of PAHs apparent solubility [8]: FLU≥PHE>ACE>FLT>ANT>PYR
PYR>ACE>FLT>PHE>ANT>FLU	hydroxypropyl-γ-CD [HP-γ-CD]	–	–	–	–	–
